The source of these data is patent US10253041B2, “7-phenylethylamino-4H-pyrimido[4,5-d][1,3]oxazin-2-one compounds and their use as mutant IDH1 inhibitors” (Eli Lilly and Company, priority 2015, dated 2019).

One assay deals with T1, IDH1/R132H (Homo sapiens, UniProt O75874, R132H).
T1 construct: His-tag (N); made in house; host or cells: E. coli
Briefly: Biochemical assay for IDH1 R132H mutant enzyme (2HG by RapidFire MS). Conditions: mean ± standard deviation of the mean; 90 minutes reaction.

A further assay addresses T2, IDH2/R140Q (Homo sapiens, UniProt P48735, R140Q).
T2 construct: His-tag (N); made in house; host or cells: E. coli
T2 sequence (P48735 40-452 R140Q): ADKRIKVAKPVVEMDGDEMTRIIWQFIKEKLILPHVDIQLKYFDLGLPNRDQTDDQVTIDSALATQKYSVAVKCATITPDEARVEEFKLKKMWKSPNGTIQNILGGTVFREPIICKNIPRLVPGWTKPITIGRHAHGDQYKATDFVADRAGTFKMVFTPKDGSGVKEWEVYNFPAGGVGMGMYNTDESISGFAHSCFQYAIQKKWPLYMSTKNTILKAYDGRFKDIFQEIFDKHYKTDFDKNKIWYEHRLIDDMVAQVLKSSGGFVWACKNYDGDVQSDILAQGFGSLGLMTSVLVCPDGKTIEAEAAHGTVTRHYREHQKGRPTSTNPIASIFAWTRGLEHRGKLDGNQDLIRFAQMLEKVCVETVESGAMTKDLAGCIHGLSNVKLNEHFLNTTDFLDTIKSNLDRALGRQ
Put plainly: Biochemical assay for IDH2 R140Q mutant enzyme (2HG by RapidFire MS). Conditions: mean ± standard deviation of the mean; 90 minutes reaction. The method, then:
(§1) IDH1-R132H, IDH1-R132C, IDH2-R172K and IDH2-R140Q mutant enzymes catalyze the conversion of αKG to 2HG. 2HG is analyzed using in-line solid phase extraction and mass spectrometry. This analysis is carried out in a RapidFire® instrument coupled to a 6460 triple quadrupole mass spectrometer (G6460A Agilent).
(§2) IDH1 mutant (R132H and R132C) and IDH2 mutant (R140Q and R172K) proteins containing N-terminal His-tag are expressed in E. coli and purified using nickel affinity chromatography. The enzyme assays are carried out in V-bottom 96 well polypropylene plates containing 100 mM Tris-HCl buffer, 1 mM DTT, 0.005% TRITON™ X-100, 120 mM NaCl. For IDH1 R132H, α-ketoglutarate, NADPH and MnCl2 are included at final concentrations of 300 μM, 2.5 μM and 300 μM respectively. For IDH1 R132C, α-ketoglutarate, NADPH and MnCl2 are included at final concentrations of 100 μM, 10 μM and 100 μM respectively. For IDH2 R172K, α-ketoglutarate, NADPH and MnCl2 are included at final concentrations of 150 μM, 10 μM and 150 μM respectively. For IDH2 R140Q, α-ketoglutarate, NADPH and MnCl2 are included at final concentrations of 3000 μM, 10 μM and 100 μM respectively. Final pH=7.0. Test compound dissolved in DMSO stock is diluted in the reaction mix at a final DMSO concentration of 4%. Compounds are tested in dose-response format. The assay is started by addition of enzyme. Enzymes are used at the following final concentrations: IDH1 R132H, 2 nM; IDH1 R132C, 0.5 nM; IDH2 R172K, 1.2 nM; IDH2 R140Q, 1.2 nM. After 90 minutes the reaction is quenched by adding ACN (50:50) containing 3-hydroxy-1,5-pentanedioic-2,2,3,4,4-d5 acid (5d5-3HG) as an internal standard for mass spectrometry analysis and quantitation of reaction product. 2-Hydroxyglutarate (2HG) in quenched samples is separated using strong anionic exchange column chromatography (Phenomenex Strata-X-A SecurityGuard) and analyzed by mass spectrometry in a 6460 triple quadrupole mass spectrometer (G6460A Agilent). The 2HG signal detected is transformed into an analyte concentration using a calibration curve generated using known 2HG concentrations. […] IC50 values are obtained from the individual % inhibition values at different compound concentrations using a 4-parameter equation. These calculations are carried out using Activity Base (IDBS) or Screener (Genedata) data analysis programs.

The target in a further assay is T3, IDH2/R172K (Homo sapiens, UniProt P48735, R172K).
T3 construct: His-tag (N); made in house; host or cells: E. coli
T3 sequence (P48735 40-452 R172K): T2 sequence (P48735 40-452 R140Q) with Q101R, R133K
Put plainly: Biochemical assay for IDH2 R172K mutant enzyme (2HG by RapidFire MS). Conditions: mean ± standard deviation of the mean; 90 minutes reaction. The method, then:
as §1, §2

The subject of assay [1] is IDH1/R132H in U87MG glioma cells. Briefly: U87MG/IDH1R132H cell assay (intracellular 2HG). The format is cell-based. As to conditions: Homo sapiens, U-87 MG, 19 h, 1 hour + 18 hours incubation, read-out: U87MG (IDH1/R132H 2-hydroxyglutarate IC50).

Changes are numbered by the printed parent chain. Some results are limits rather than exact numbers.

T1 sequence (O75874 whole entry R132H): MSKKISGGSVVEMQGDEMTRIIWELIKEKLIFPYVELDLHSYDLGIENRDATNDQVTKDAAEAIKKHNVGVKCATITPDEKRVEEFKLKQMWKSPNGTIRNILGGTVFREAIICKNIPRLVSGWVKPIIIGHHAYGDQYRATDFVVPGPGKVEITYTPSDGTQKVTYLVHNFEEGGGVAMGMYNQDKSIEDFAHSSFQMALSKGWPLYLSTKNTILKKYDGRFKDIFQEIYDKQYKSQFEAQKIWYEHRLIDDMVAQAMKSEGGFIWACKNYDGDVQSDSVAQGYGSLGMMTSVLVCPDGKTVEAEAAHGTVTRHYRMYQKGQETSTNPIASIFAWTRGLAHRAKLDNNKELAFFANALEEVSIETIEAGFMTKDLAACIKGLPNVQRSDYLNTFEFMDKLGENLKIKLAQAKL

Turning to `C=CC(=O)N1CCN(Cc2ccc([C@H](C)Nc3ncc4c(n3)N(CCF)C(=O)OC4)cc2)CC1` [Example 21, 1-(2-fluoroethyl)-7-[[(1S)-1-[4-[(4-prop-2-enoylpiperazin-1-yl)methyl]phenyl]ethyl]amino]-4H-pyrimido[4,5-d][1,3]oxazin-2-one], the IC50 at IDH1/R132H is 0.323 ± 0.076 µM; on IDH2/R140Q it was greater than 100 µM; against IDH2/R172K it was 10.4 ± 7 µM; in assay [1] it was 0.0246 ± 0.0159 µM.
